Test results taken from ChEMBL document CHEMBL3045785, “Synthesis and anti-inflammatory activity of 1-acetyl/propanoyl-5-aryl-3-(4-morpholinophenyl)-4,5-dihydro-1H-pyrazole derivatives” (2012).

Experiments:
Rattus norvegicus [1] = experiment: Anti-inflammatory activity in Rattus norvegicus albino (rat) assessed as inhibition of carrageenan-induced paw edema at 10 mg/kg, ip administered 1 hr prior tocarrageenan-challenge measured after 3 hr relative to indomethacin; format: functional; conditions: route intraperitoneal
Rattus norvegicus [2] = experiment: Anti-inflammatory activity in Rattus norvegicus albino (rat) assessed as inhibition of carrageenan-induced paw edema at 10 mg/kg, ip administered 1 hr prior tocarrageenan-challenge measured after 3 hr relative to control; format: functional; conditions: route intraperitoneal

Compound	inhibition in vivo at 10 mg/kg (Rattus norvegicus [1])	inhibition in vivo at 10 mg/kg (Rattus norvegicus [2])
CCC(=O)N1N=C(c2ccc(N3CCOCC3)cc2)CC1c1cc(OC)cc(OC)c1 (stereo not given)	27%	15.9%
CCC(=O)N1N=C(c2ccc(N3CCOCC3)cc2)CC1c1cc(OC)c(OC)c(OC)c1 (stereo not given)	1.84%	1.08%
CC(=O)N1N=C(c2ccc(N3CCOCC3)cc2)CC1c1cccs1 (stereo not given)	11.7%	6.86%
CC(=O)N1N=C(c2ccc(N3CCOCC3)cc2)CC1c1ccc(Br)cc1 (stereo not given)	19%	11.2%
COc1ccccc1C1CC(c2ccc(N3CCOCC3)cc2)=NN1C(C)=O (stereo not given)	52.8%	31.1%
COc1ccc(C2CC(c3ccc(N4CCOCC4)cc3)=NN2C(C)=O)cc1OC (stereo not given)	9.82%	5.78%
COc1cc(OC)cc(C2CC(c3ccc(N4CCOCC4)cc3)=NN2C(C)=O)c1 (stereo not given)	22.7%	13.4%
COc1cc(C2CC(c3ccc(N4CCOCC4)cc3)=NN2C(C)=O)cc(OC)c1OC (stereo not given)	6.13%	3.61%
CCC(=O)N1N=C(c2ccc(N3CCOCC3)cc2)CC1c1cccs1 (stereo not given)	1.84%	1.08%
CCC(=O)N1N=C(c2ccc(N3CCOCC3)cc2)CC1c1ccc(Br)cc1 (stereo not given)	31.3%	18.4%
CCC(=O)N1N=C(c2ccc(N3CCOCC3)cc2)CC1c1ccccc1OC (stereo not given)	10.4%	6.14%
CCC(=O)N1N=C(c2ccc(N3CCOCC3)cc2)CC1c1ccc(OC)c(OC)c1 (stereo not given)	52.8%	31.1%
COc1ccc2c(c1)c(CC(=O)O)c(C)n2C(=O)c1ccc(Cl)cc1 [INDOMETHACIN]		58.8%
